Measurements published in US9676715B2, “Bis-indolic derivatives, a process for preparing the same and their uses as a drug” (UNIVERSITE JOSEPH FOURIER, priority 2011, dated 2017).
In brackets after ≈: the same amount, converted by molar mass.

How the values were obtained:
[1] = tested on: Staphylococcus aureus SA-1199B (NorA); assay: MIC, Staphylococcus panel (9.2); type: cell-based; settings: 18 h
Procedure: (§1) The microdilution method recommended by the Clinical and Laboratory Standard Institute [M07-A9, Vol. 32, N° 2] was used. The activity of bis-indolic compounds 3f and 4 was tested against 35 Staphylococcus bacterial strains corresponding to 12 different species,
(§2) Bacterial inocula were prepared in Mueller Hinton broth (MH2, BioMérieux, Marcy L'Etoile, France). They were dispensed in 96 well microtiter plates (5×10^5 CFU/ml of final inoculum, 192 μL per well). Indolic compounds diluted in pure DMSO (8 μL per well, concentrated 25 times) were added to the wells as to obtain two-fold serial concentrations (0.5-32 mg/L of final concentrations). The final concentration of DMSO was 4% in each well.
(§3) To avoid cross-contaminations in microtiter plates, one row was left blank between each strain tested. Microplates were incubated for 18 h at 37° C. in ambient air. Then MICs were read visually and, in case of visual reading difficulties, confirmed using a spectrophotometer at a wavelength of 630 nm (BioTek® EL808 Absorbance Microplate Reader). MICs corresponded to the minimum bis-indolic compound concentration that allowed complete visual growth inhibition of bacteria. Drug-free cultures served as growth controls.
Four Staphylococcus aureus strains were used. Two reference strains were provided by the French reference center for Staphylococcus spp. (Lyon, France), including one methicillin-susceptible (MSSA 476) and one methicillin-resistant (MRSA 252) S. aureus strains. The two remaining S. aureus strains were purchased from the CRBIP (Centre de Ressources Biologiques de l'Institut Pasteur): a vancomycin-intermediate strain (ATCC 106414) and a S. aureus strain (SA-1199B) resistant to fluoroquinolones due to overexpression of the NorA multidrug efflux pump.

S. aureus ATCC 25923 = assay: Concentration-killing curves; type: cell-based, Staphylococcus aureus; settings: concentrations up to 128 mg/L, after 18 h of incubation
Procedure: FIGS. 1A and 1B present concentration-killing curves for the indolic compounds 3f and 4 against S. aureus ATCC 25923. The activity is evaluated after 18 h incubation of S. aureus cultures in the presence of the tested compound.
The area between the horizontal full line and the dashed line corresponds to a bacteriostatic effect and the area below the dashed line corresponds to a bactericidal effect (i.e., ≧3 log reduction of the primary bacterial inoculum after 18 h incubation of cultures in the presence of the tested compound).
The method described by Motyl et al. [M. Motyl, K. Dorso, J. Barrett, R. Giacobbe, Basic Microbiological Techniques Used in Antibacterial Drug Discovery. Current Protocols in Pharmacology. UNIT 13A.3. January, 2006] was used.
Killing curves corresponded to the measure of the kinetic of bactericidal activity of indolic compounds over time (time-kill curves) or after 18 h incubation of cultures according to different drug concentrations (concentration-killing curves). […] Bacterial inocula are determined in each tube using the CFU count method at the beginning of the experiments, and then after 18 h for concentration-killing curves, or after 1 h, 2 h, 4 h, 8 h and 18 h for time-kill curves. […]

[2] = tested on: Staphylococcus auricularis (CHUG-Saur1); assay: MIC, Staphylococcus panel (9.2); type: cell-based; settings: S. auricularis CHUG-Saur1, 4% DMSO, 18 h
Procedure: as §1, §2, §3
(§4) Coagulase-negative Staphylococcus strains included three reference strains purchased from CRBIP: a methicillin-susceptible S. epidermidis strain (ATCC 12228), a methicillin-resistant S. epidermidis strain (ATCC 49461), and a methicillin-susceptible S. sciuri strain (ATCC 29061). We also used clinical strains belonging to the following coagulase-negative Staphylococcus species: S. auricularis (two strains), S. warneri (five strains), S. capitis (five strains), S. haemolyticus (four strains), S. hominis (seven strains), S. cohnii (two strains), and S. saprophyticus, S. caprae and S. simulans (one strain each). Identification of the clinical strains was obtained using VITEK® 2 System (Biomérieux). The specified strain numbers correspond to an internal number of the bacterial strain collection of our laboratory.

[3] = tested on: Staphylococcus capitis (CHUG-Scap1); assay: MIC, Staphylococcus panel (9.2); type: cell-based; settings: S. capitis CHUG-Scap1, 4% DMSO, 18 h
Procedure: as §1, §2, §3, §4

[4] = tested on: Staphylococcus warneri (CHUG-Swar1); assay: MIC, Staphylococcus panel (9.2); type: cell-based; settings: S. warneri CHUG-Swar1, 4% DMSO, 18 h
Procedure: as §1, §2, §3, §4

[5] = tested on: Staphylococcus epidermidis ATCC 12228; assay: MIC, Staphylococcus panel (9.2); type: cell-based; settings: ATCC12228, S. epidermidis ATCC 12228, 4% DMSO, 18 h
Procedure: as §1, §2, §3, §4

[6] = tested on: Staphylococcus haemolyticus (CHUG-Shae1); assay: MIC, Staphylococcus panel (9.2); type: cell-based; settings: S. haemolyticus CHUG-Shae1, 4% DMSO, 18 h
Procedure: as §1, §2, §3, §4

[7] = tested on: Staphylococcus sciuri ATCC 29061; assay: MIC, Staphylococcus panel (9.2); type: cell-based; settings: Mammaliicoccus sciuri, ATCC29061; S. sciuri ATCC 29061; 4% DMSO, 18 h
Procedure: as §1, §2, §3, §4

[8] = tested on: Staphylococcus hominis (CHUG-Shom1); assay: MIC, Staphylococcus panel (9.2); type: cell-based; settings: S. hominis CHUG-Shom1, 4% DMSO, 18 h
Procedure: as §1, §2, §3, §4

[9] = tested on: Staphylococcus epidermidis ATCC 49461; assay: MIC, Staphylococcus panel (9.2); type: cell-based; settings: ATCC49461, S. epidermidis ATCC 49461, 4% DMSO, 18 h
Procedure: as §1, §2, §3, §4

CC(C)(C)OC(=O)NCC(NC(=O)c1c[nH]c2ccc(Br)cc12)c1c[nH]c2ccc(Br)cc12 (centres unmarked) [Compound 3f, tert-Butyl(2-(5-bromo-1H-indol-3-yl)-2-(5-bromo-1H-indolyl-3-carboxamido)ethyl)carbamate]
MIC [1]: 2 µg/mL (≈ 3.47 µM) | bactericidal activity (concentration-killing curve) (S. aureus ATCC 25923): no detectable bactericidal activity | MIC [2]: 2 µg/mL (≈ 3.47 µM) | MIC [3]: 4 µg/mL (≈ 6.94 µM) | MIC [4]: 2 µg/mL (≈ 3.47 µM) | MIC [5]: 2 µg/mL (≈ 3.47 µM) | MIC [6]: 4 µg/mL (≈ 6.94 µM) | MIC [7]: 4 µg/mL (≈ 6.94 µM) | MIC [8]: 4 µg/mL (≈ 6.94 µM) | MIC [9]: 2 µg/mL (≈ 3.47 µM)

CC(NC(=O)c1c[nH]c2ccc(Br)cc12)c1c[nH]c2ccc(Br)cc12 (centres unmarked) [Compound 4, 5-Bromo-N-(1-(5-bromo-1H-indol-3-yl)ethyl)-1H-indole-3-carboxamide]
MIC [1]: 2 µg/mL (≈ 4.34 µM) | bactericidal activity (concentration-killing curve) (S. aureus ATCC 25923): no detectable bactericidal activity | MIC [2]: 1 µg/mL (≈ 2.17 µM) | MIC [3]: 2 µg/mL (≈ 4.34 µM) | MIC [4]: 1 µg/mL (≈ 2.17 µM) | MIC [5]: 1 µg/mL (≈ 2.17 µM) | MIC [6]: 2 µg/mL (≈ 4.34 µM) | MIC [7]: 2 µg/mL (≈ 4.34 µM) | MIC [8]: 1 µg/mL (≈ 2.17 µM) | MIC [9]: 1 µg/mL (≈ 2.17 µM)
